The source of these data is US20230312587A1, “PTERIDINONE COMPOUNDS AND USES THEREOF” (Vertex Pharmaceutical Incorporated, priority 2018, published 2023).

Experiment [1] concerns β-catenin-TCF-mediated reporter transcription activity in Colo 205 cells. Nature of the experiment: Colo 205 reporter assay (TCF/LEF luciferase). The format is cell-based. As to conditions: Colo 205 TCF/LEF luciferase reporter, five hours after addition of compound, read-out: TCF reporter Colo205 IC50. In a few lines:
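Luciferase signal from a TCF/LEF-driven reporter, stably integrated in Colo 205 colon cancer cells, was measured 5 h after compound addition.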

For experiment [2], the target named is HEK293 membranes over-expressing WFS-1 (Homo sapiens (Human), UniProt O76024). Description: Radioligand displacement assay (tritiated Compound 136 probe). The format is binding. Conditions: displacement of tritiated Compound 136. Summed up: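 WFS-1-overexpressing HEK293 membranes were preincubated 10 min with compound, then tritiated probe was added for 90 min at room temperature. Bound probe was collected by filtration on PEI-pretreated GF/B filters, washed and scintillation-counted. IC50 came from a 3-parameter fit of bound probe vs compound concentration.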

Where two headings read alike, the source gives them in different places.

HEK293 membranes over-expressing WFS-1, sequence (O76024 whole entry): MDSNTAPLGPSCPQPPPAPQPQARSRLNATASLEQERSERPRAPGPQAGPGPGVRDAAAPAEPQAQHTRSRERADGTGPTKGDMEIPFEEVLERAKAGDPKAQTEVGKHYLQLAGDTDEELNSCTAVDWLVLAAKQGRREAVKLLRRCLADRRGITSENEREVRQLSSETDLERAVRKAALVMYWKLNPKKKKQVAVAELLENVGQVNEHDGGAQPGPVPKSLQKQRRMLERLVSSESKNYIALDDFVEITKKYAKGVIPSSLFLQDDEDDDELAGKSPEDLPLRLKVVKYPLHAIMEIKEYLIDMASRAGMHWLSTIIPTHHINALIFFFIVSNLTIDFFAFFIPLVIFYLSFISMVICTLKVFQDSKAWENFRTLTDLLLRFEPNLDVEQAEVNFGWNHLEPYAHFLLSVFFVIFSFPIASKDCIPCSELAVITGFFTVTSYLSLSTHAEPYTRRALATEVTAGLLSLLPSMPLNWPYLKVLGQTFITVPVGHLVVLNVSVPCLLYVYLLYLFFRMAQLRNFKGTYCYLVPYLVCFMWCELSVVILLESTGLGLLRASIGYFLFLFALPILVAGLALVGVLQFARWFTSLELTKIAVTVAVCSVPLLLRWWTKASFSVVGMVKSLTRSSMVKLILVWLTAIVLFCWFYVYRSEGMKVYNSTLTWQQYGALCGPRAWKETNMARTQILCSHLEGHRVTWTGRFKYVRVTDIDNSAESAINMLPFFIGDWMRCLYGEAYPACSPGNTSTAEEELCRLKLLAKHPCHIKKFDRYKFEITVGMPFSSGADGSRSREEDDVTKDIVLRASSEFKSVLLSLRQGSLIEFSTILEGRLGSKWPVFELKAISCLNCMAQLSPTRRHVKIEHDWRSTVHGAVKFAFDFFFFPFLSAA

Consider `Cc1nc(N[C@H]2CC[C@H](Oc3ccc(C(F)(F)F)nc3)C2)nc2c1NC(=O)[C@H](C)N2C` (single isomer, unassigned) [Compound 376], for which the results for the IC50 in experiment [1] and in experiment [2] were 1000 to 5000 nM and 60 to 600 nM, respectively.

Regarding `Cc1nc(N[C@H]2CC[C@H](Oc3ccc(C(F)(F)F)nc3)C2)nc2c1NC(=O)[C@H](C)N2C` (single isomer, unassigned) [Compound 377], the IC50 in experiment [1] is below 300 nM; in experiment [2], below 60 nM.

`COc1c(F)cc(Cn2cc(CNc3nc(C)c4c(n3)N(C)[C@@H](C)C(=O)N4)cn2)cc1F` [Compound 46, (7S)-2-(((1-(3,5-difluoro-4-methoxybenzyl)-1H-pyrazol-4-yl)methyl)amino)-4,7,8-trimethyl-7,8-dihydropteridin-6(5H)-one]: the IC50 in experiment [1] (Homo sapiens, COLO 205, 5 h) is below 300 nM; in experiment [2], below 60 nM.

For `Cc1nc(NCc2cnn(Cc3ccc(F)nc3)c2)nc2c1NC(=O)[C@H](C)N2C` [Compound 77], the IC50 is below 300 nM in experiment [1] (Homo sapiens, COLO 205, 5 h) and 60 to 600 nM in experiment [2].

Regarding `Cc1nc(NCc2cnn(Cc3cccc(C(C)C)c3)c2)nc2c1NC(=O)[C@H](C)N2C` [Compound 80, (7S)-2-(((1-(3-isopropylbenzyl)-1H-pyrazol-4-yl)methyl)amino)-4,7,8-trimethyl-7,8-dihydropteridin-6(5H)-one], the IC50 in experiment [1] (Homo sapiens, COLO 205, 5 h) was below 300 nM; in experiment [2] it was below 60 nM.

Turning to `COc1cc(F)ccc1Cn1cc(CNc2nc(C)c3c(n2)N(C)[C@@H](C)C(=O)N3)cn1` [Compound 83, (7S)-2-(((1-(4-fluoro-2-methoxybenzyl)-1H-pyrazol-4-yl)methyl)amino)-4,7,8-trimethyl-7,8-dihydropteridin-6(5H)-one], the IC50 in experiment [1] (Homo sapiens, COLO 205, 5 h) is below 300 nM; in experiment [2], below 60 nM.

Consider `Cc1cc(F)ncc1Cn1cc(CNc2nc(C)c3c(n2)N(C)[C@@H](C)C(=O)N3)cn1` [Compound 94, (7S)-2-(((1-((6-fluoro-4-methylpyridin-3-yl)methyl)-1H-pyrazol-4-yl)methyl)amino)-4,7,8-trimethyl-7,8-dihydropteridin-6(5H)-one], for which the half-inhibitory concentration (IC50) in experiment [1] (Homo sapiens, COLO 205, 5 h) is below 300 nM; in experiment [2] it was 60 to 600 nM.

With `Cc1nc(NCc2cnn(Cc3cc(F)c(F)c(F)c3)c2)nc2c1NC(=O)[C@H](C)N2C` [Compound 122, (7S)-4,7,8-trimethyl-2-(((1-(3,4,5-trifluorobenzyl)-1H-pyrazol-4-yl)methyl)amino)-7,8-dihydropteridin-6(5H)-one], the IC50 in experiment [1] (Homo sapiens, COLO 205, 5 h) is below 300 nM; in experiment [2], below 60 nM.

With `Cc1nc(NCc2cnn([C@H]3CCN(C4CCC(F)(F)CC4)C3)c2)nc2c1NC(=O)[C@H](C)N2C` [Compound 142, (7S)-2-(((1-((S)-1-(4,4-difluorocyclohexyl)pyrrolidin-3-yl)-1H-pyrazol-4-yl)methyl)amino)-4,7,8-trimethyl-7,8-dihydropteridin-6(5H)-one], the half-maximal inhibitory concentration (IC50) in experiment [1] (Homo sapiens, COLO 205, 5 h) lay in the range of 300 to 1000 nM; in experiment [2], 60 to 600 nM.

Consider `Cc1nc(NCc2ccc(-n3cc(C(F)(F)F)cn3)nc2)nc2c1NC(=O)[C@H](C)N2C` [Compound 143, (S)-4,7,8-trimethyl-2-(((6-(4-(trifluoromethyl)-1H-pyrazol-1-yl)pyridin-3-yl)methyl)amino)-7,8-dihydropteridin-6(5H)-one], for which the IC50 in experiment [1] (Homo sapiens, COLO 205, 5 h) lay within 300 to 1000 nM; in experiment [2], 60 to 600 nM.

On to `Cc1nc(NCc2cnn([C@@H]3C[C@@H]3c3ccc(F)cc3)c2)nc2c1NC(=O)[C@H](C)N2C` [Compound 154, (7S)-2-(((1-((1R,2R)-2-(4-fluorophenyl)cyclopropyl)-1H-pyrazol-4-yl)methyl)amino)-4,7,8-trimethyl-7,8-dihydropteridin-6(5H)-one], for which the IC50 in experiment [1] (Homo sapiens, COLO 205, 5 h) is below 300 nM; in experiment [2], below 60 nM.

Turning to `Cc1nc(NCc2cnn(Cc3cc(C(F)(F)F)nn3C)c2)nc2c1NC(=O)[C@H](C)N2C` [Compound 160, (7S)-4,7,8-trimethyl-2-(((1-((1-methyl-3-(trifluoromethyl)-1H-pyrazol-5-yl)methyl)-1H-pyrazol-4-yl)methyl)amino)-7,8-dihydropteridin-6(5H)-one], the IC50 in experiment [1] (Homo sapiens, COLO 205, 5 h) is below 300 nM; in experiment [2], 60 to 600 nM.

As to `Cc1ccc(Cn2cc(CNc3nc(C)c4c(n3)N(C)[C@@H](C)C(=O)N4)cn2)cn1` [Compound 173, (7S)-4,7,8-trimethyl-2-(((1-((6-methylpyridin-3-yl)methyl)-1H-pyrazol-4-yl)methyl)amino)-7,8-dihydropteridin-6(5H)-one], the IC50 in experiment [1] (Homo sapiens, COLO 205, 5 h) lay within 1000 to 5000 nM; in experiment [2], 600 to 3000 nM.

As to `Cc1nc(NCc2cnn([C@@H](C)c3ccc(C(F)(F)F)nc3)c2)nc2c1NC(=O)[C@H](C)N2C` [Compound 174, (7S)-4,7,8-Trimethyl-2-(((1-((S)-1-(6-(trifluoromethyl)pyridin-3-yl)ethyl)-1H-pyrazol-4-yl)methyl)amino)-7,8-dihydropteridin-6(5H)-one], the IC50 in experiment [1] (Homo sapiens, COLO 205, 5 h) was below 300 nM; in experiment [2], 60 to 600 nM.

For `CC[C@H]1C(=O)Nc2c(C)nc(NCc3cnn(Cc4ccc(C(F)(F)F)nc4)c3)nc2N1C` [Compound 186, (7S)-7-ethyl-4,8-dimethyl-2-(((1-((6-(trifluoromethyl)pyridin-3-yl)methyl)-1H-pyrazol-4-yl)methyl)amino)-7,8-dihydropteridin-6(5H)-one], the IC50 in experiment [1] (Homo sapiens, COLO 205, 5 h) is below 300 nM; in experiment [2], 60 to 600 nM.

Consider `Cc1nc(C(F)(F)F)ccc1Cn1cc(CNc2nc(C)c3c(n2)N(C)[C@@H](C)C(=O)N3)cn1` [Compound 188, (S)-4,7,8-trimethyl-2-(((1-((2-methyl-6-(trifluoromethyl)pyridin-3-yl)methyl)-1H-pyrazol-4-yl)methyl)amino)-7,8-dihydropteridin-6(5H)-one], for which the IC50 in experiment [1] (Homo sapiens, COLO 205, 5 h) was below 300 nM; in experiment [2] it was 60 to 600 nM.

For `Cc1nc(NCc2cnn(Cc3ccnc(C(F)(F)F)c3)c2)nc2c1NC(=O)[C@H](C)N2C` [Compound 207, (7S)-4,7,8-trimethyl-2-(((1-((2-(trifluoromethyl)pyridin-4-yl)methyl)-1H-pyrazol-4-yl)methyl)amino)-7,8-dihydropteridin-6(5H)-one], the IC50 in experiment [1] (Homo sapiens, COLO 205, 5 h) was below 300 nM; in experiment [2], 60 to 600 nM.

Take `Cc1nc(N[C@H]2C[C@H](Oc3cc(F)c(F)c(F)c3)C2)nc2c1NC(=O)[C@H](C)N2C` [Compound 246, (7S)-4,7,8-trimethyl-2-((trans-3-(3,4,5-trifluorophenoxy)cyclobutyl)amino)-7,8-dihydropteridin-6(5H)-one]: the IC50 is below 300 nM in experiment [1] (Homo sapiens, COLO 205, 5 h) and 60 to 600 nM in experiment [2].

For the compound `Cc1nc(N[C@H]2C[C@H](Oc3ccc(F)cc3)C2)nc2c1N(C)C(=O)[C@H](C)N2C` [Compound 250, (7S)-2-((trans-3-(4-fluorophenoxy)cyclobutyl)amino)-4,5,7,8-tetramethyl-7,8-dihydropteridin-6(5H)-one], the IC50 in experiment [1] (Homo sapiens, COLO 205, 5 h) was in the range of 300 to 1000 nM; in experiment [2] it was 60 to 600 nM.

Turning to `Cc1nc(N[C@H]2C[C@H](Oc3ccc(C(F)(F)F)nc3)C2)nc2c1NC(=O)[C@H](C)N2C` [Compound 324, (7S)-4,7,8-trimethyl-2-((trans-3-((6-(trifluoromethyl)pyridin-3-yl)oxy)cyclobutyl)amino)-7,8-dihydropteridin-6(5H)-one], the concentration for half-maximal inhibition (IC50) was below 300 nM in experiment [1] (Homo sapiens, COLO 205, 5 h) and below 60 nM in experiment [2].

Regarding `Cc1nc(N[C@H]2C[C@H](Sc3cc(F)c(F)c(F)c3)C2)nc2c1NC(=O)[C@H](C)N2C` [Compound 329, (7S)-4,7,8-trimethyl-2-((trans-3-((3,4,5-trifluorophenyl)thio)-cyclobutyl)amino)-7,8-dihydropteridin-6(5H)-one], the 50% inhibitory concentration (IC50) was below 300 nM in experiment [1] (Homo sapiens, COLO 205, 5 h) and 60 to 600 nM in experiment [2].

As for `Cc1nc(N[C@H]2C[C@@H](Sc3cc(F)c(F)c(F)c3)C2)nc2c1NC(=O)[C@H](C)N2C` [Compound 332, (7S)-4,7,8-trimethyl-2-((cis-3-((3,4,5-trifluorophenyl)thio)cyclobutyl)amino)-7,8-dihydropteridin-6(5H)-one], the IC50 in experiment [1] (Homo sapiens, COLO 205, 5 h) was below 300 nM; in experiment [2], 60 to 600 nM.

`Cc1nc(NCc2cnn(Cc3ccc(C(F)(F)F)nc3)c2)nc2c1NC(=O)[C@H](C)N2C(C)C` [Compound 385, (7S)-8-isopropyl-4,7-dimethyl-2-(((1-((6-(trifluoromethyl)pyridin-3-yl)methyl)-1H-pyrazol-4-yl)methyl)amino)-7,8-dihydropteridin-6(5H)-one]: the IC50 in experiment [1] (Homo sapiens, COLO 205, 5 h) was below 300 nM; in experiment [2], below 60 nM.

Regarding `Cc1nc(NCc2cnn(Cc3ccc(C(F)(F)F)nc3)c2)nc2c1NC(=O)[C@H](C1CC1)N2C` [Compound 386, (7S)-7-Cyclopropyl-4,8-dimethyl-2-(((1-((6-(trifluoromethyl)pyridin-3-yl)methyl)-1H-pyrazol-4-yl)methyl)amino)-7,8-dihydropteridin-6(5H)-one], the IC50 in experiment [1] (Homo sapiens, COLO 205, 5 h) is below 300 nM; in experiment [2], 60 to 600 nM.

As for `Cc1nc(NCc2cnn(Cc3ccc(C(F)(F)F)nc3C(C)C)c2)nc2c1NC(=O)[C@H](C)N2C` [Compound 388, (7S)-2-(((1-((2-isopropyl-6-(trifluoromethyl)pyridin-3-yl)methyl)-1H-pyrazol-4-yl)methyl)amino)-4,7,8-trimethyl-7,8-dihydropteridin-6(5H)-one], the IC50 in experiment [1] (Homo sapiens, COLO 205, 5 h) was below 300 nM; in experiment [2] it was below 60 nM.

On to `CCN1c2nc(NCc3cnn(Cc4ccc(C(F)(F)F)nc4)c3)nc(C)c2NC(=O)[C@@H]1C` [Compound 395, (7S)-8-Ethyl-4,7-dimethyl-2-(((1-((6-(trifluoromethyl)pyridin-3-yl)methyl)-1H-pyrazol-4-yl)methyl)amino)-7,8-dihydropteridin-6(5H)-one], for which the IC50 was below 300 nM in experiment [1] (Homo sapiens, COLO 205, 5 h) and 60 to 600 nM in experiment [2].
